Values after ≈ are worked out from the molar mass of the structure shown. Like-named read-outs stand apart in the source and are kept apart here.
Columns and labels:
E. coli HH 33779 = test: MIC in vitro; type: cell-based; conditions: Escherichia coli, HH33779
Protocol: (§1) The compounds of Formula I have antibacterial activity against both Gram-positive and Gram-negative organisms. Minimum inhibitory concentrations (MIC's) ranged from 0.2 to >200 μg./ml. in in vitro testing. […] Compound numbers corresponding to structures are given in the experimental section.

Entero. cloacae HH 31254 = test: MIC in vitro; type: cell-based; conditions: for MIC: Enterobacter cloacae
Protocol: as §1

Proteus Morgani 179 = test: MIC in vitro; type: cell-based
Protocol: as §1

Pseudo. sp. HH 63 = test: MIC in vitro; type: cell-based
Protocol: as §1

S. aureus SK 23390 = test: MIC in vitro; type: cell-based; conditions: for MIC: Staphylococcus aureus
Protocol: as §1

S. villaluz = test: MIC in vitro; type: cell-based; conditions: read-out: MIC in vitro
Protocol: as §1

Salmonella ATCC 12176 = test: MIC in vitro; type: cell-based; conditions: ATCC12176
Protocol: as §1

Serra. marc. ATCC 13880 = test: MIC in vitro; type: cell-based
Protocol: as §1

Shigella HH 117 = test: MIC in vitro; type: cell-based; conditions: for MIC: Shigella, HH117, Shigella HH 117
Protocol: as §1

Strep. faecalis HH 34358 = test: MIC in vitro; type: cell-based; conditions: for MIC: Enterococcus faecalis, HH34358, Strep. faecalis HH 34358
Protocol: as §1

E. coli 12140 = test: In vivo mouse protection (ED50)
E. coli SK 12140 = test: MIC in vitro; type: cell-based; conditions: Escherichia coli
Protocol: as §1

[1] = tested on: Entero. aerog. ATCC 13048; test: MIC in vitro; type: cell-based
Protocol: as §1

Kleb. pneumo. SK 1200 = test: MIC in vitro; type: cell-based
Protocol: as §1

Kleb. pneumo. SK 4200 = test: MIC in vitro; type: cell-based; conditions: read-out: MIC in vitro
Protocol: as §1

S. aureus HH 127 = test: MIC in vitro; type: cell-based; conditions: Staphylococcus aureus
Protocol: as §1

Kleb. pneumo. 4200 = test: In vivo mouse protection (ED50); conditions: for ED50: Mus musculus
[2] = HH31254, read-out: MIC in vitro
[3] = SK23390, S. aureus SK 23390, read-out: MIC in vitro
[4] = Escherichia coli, 12140, po, E. coli 12140, p.o.
[5] = Escherichia coli, 12140, sc, E. coli 12140, s.c.
[6] = SK12140, E. coli SK 12140, read-out: MIC in vitro
[7] = Kleb. pneumo. SK 1200, read-out: MIC in vitro
[8] = HH127, S. aureus HH 127, read-out: MIC in vitro
[9] = HH31254, Entero. cloacae HH 31254, read-out: MIC in vitro
[10] = read-out: MIC in vitro, Kleb. pneumo. SK 1200
[11] = SK23390, read-out: MIC in vitro

SMILES | MIC (E. coli HH 33779) | MIC (Proteus Morgani 179) | MIC (Pseudo. sp. HH 63) | MIC (S. aureus SK 23390; [3]) | MIC (S. villaluz) | MIC (Salmonella ATCC 12176) | MIC (Serra. marc. ATCC 13880) | MIC (Shigella HH 117) | MIC (Strep. faecalis HH 34358) | ED50 (E. coli 12140; [4]) | ED50 (E. coli 12140; [5]) | MIC (E. coli SK 12140; [6]) | MIC [1] | MIC (Kleb. pneumo. SK 1200; [7]) | MIC (Kleb. pneumo. SK 4200; Kleb. pneumo. SK 4200) | MIC (S. aureus HH 127; [8]) | ED50 in vivo (Kleb. pneumo. 4200; Kleb. pneumo. 4200, s.c.) | ED50 (Kleb. pneumo. 4200; po, Kleb. pneumo. 4200, p.o.) | ED50 (Kleb. pneumo. 4200; sc, Kleb. pneumo. 4200, s.c.) | MIC (S. aureus HH 127; HH127, read-out: MIC in vitro) | also measured
CCOC(=O)c1nn[nH]c1SCC1=C(C(=O)O)N2C(=O)C(NC(=O)[C@H](N)c3ccc(O)cc3)[C@H]2SC1 (stereo partly drawn) [I, 7-(D-α-Amino-4-hydroxyphenylacetamido)-3-(4-carbethoxy-1,2,3-triazol-5-ylthiomethyl)-3-cephem-4-carboxylic acid] | 25 µg/mL (≈ 46.8 µM) | > 200 µg/mL | > 200 µg/mL | 25 µg/mL (≈ 46.8 µM) | 200 µg/mL (≈ 374 µM) | 12.5 µg/mL (≈ 23.4 µM) | > 200 µg/mL | 12.5 µg/mL (≈ 23.4 µM) | 200 µg/mL (≈ 374 µM) | > 200 mg/kg | 100 mg/kg | – | – | – | – | – | – | – | – | – | MIC (Entero. cloacae HH 31254; [2]): 12.5 µg/mL (≈ 23.4 µM); MIC in vitro (S. aureus SK 23390; S. aureus SK 23390): 13 µg/mL (≈ 24.3 µM); MIC in vitro (Strep. faecalis HH 34358; Strep. faecalis HH 34358): 100 µg/mL (≈ 187 µM)
CCOC(=O)c1nn[nH]c1SCC1=C(C(=O)O)N2C(=O)C(NC(=O)[C@H](N)c3ccccc3)[C@H]2SC1 (stereo partly drawn) [II, 7-(D-α-Aminophenylacetamido)-3-(4-carbethoxy-1,2,3-triazol-5-ylthiomethyl)-3-cephem-4-carboxylic acid] | 50 µg/mL (≈ 96.4 µM) | > 200 µg/mL | – | 6 µg/mL (≈ 11.6 µM) | 100 µg/mL (≈ 193 µM) | 13 µg/mL (≈ 25.1 µM) | > 200 µg/mL | 13 µg/mL (≈ 25.1 µM) | 100 µg/mL (≈ 193 µM) | – | – | 25 µg/mL (≈ 48.2 µM) | 50 µg/mL (≈ 96.4 µM) | 50 µg/mL (≈ 96.4 µM) | 25 µg/mL (≈ 48.2 µM) | 6 µg/mL (≈ 11.6 µM) | – | – | – | – | –
CCOC(=O)Cc1nc(SCC2=C(C(=O)O)N3C(=O)C(NC(=O)[C@H](N)c4ccccc4)[C@H]3SC2)n[nH]1 (stereo partly drawn) [III, 7-(D-α-Aminophenylacetamido)-3-(5-carbethoxymethyl-1,2,4-triazol-3-ylthiomethyl)-3-cephem-4-carboxylic acid] | 50 µg/mL (≈ 93.9 µM) | > 200 µg/mL | – | 6 µg/mL (≈ 11.3 µM) | – | 25 µg/mL (≈ 46.9 µM) | > 200 µg/mL | 13 µg/mL (≈ 24.4 µM) | 100 µg/mL (≈ 188 µM) | 78 mg/kg | – | 50 µg/mL (≈ 93.9 µM) | 100 µg/mL (≈ 188 µM) | 25 µg/mL (≈ 46.9 µM) | 25 µg/mL (≈ 46.9 µM) | 6 µg/mL (≈ 11.3 µM) | 3 mg/kg | 50 mg/kg | < 3 mg/kg | – | –
NC(=O)c1nn[nH]c1SCC1=C(C(=O)O)N2C(=O)C(NC(=O)[C@H](N)c3ccc(O)cc3)[C@H]2SC1 (stereo partly drawn) [IV, 7-(D-α-Amino-4-hydroxyphenylacetamido)-3-(4-carbamoyl-1,2,3-triazol-5-ylthiomethyl)-3-cephem-4-carboxylic acid] | 6 µg/mL (≈ 11.9 µM) | > 200 µg/mL | – | 3 µg/mL (≈ 5.93 µM) | – | 1.6 µg/mL (≈ 3.16 µM) | > 200 µg/mL | 1.6 µg/mL (≈ 3.16 µM) | 25 µg/mL (≈ 49.5 µM) | 35 mg/kg | 5.2 mg/kg | 6 µg/mL (≈ 11.9 µM) | 50 µg/mL (≈ 98.9 µM) | 1.6 µg/mL (≈ 3.16 µM) | 6 µg/mL (≈ 11.9 µM) | 3 µg/mL (≈ 5.93 µM) | – | 8.2 mg/kg | < 3 mg/kg | – | –
O=C(O)Cc1nc(SCC2=C(C(=O)O)N3C(=O)C(NC(=O)[C@H](O)c4ccccc4)[C@H]3SC2)n[nH]1 (stereo partly drawn) [IX, 7-D-Mandelamido-3-(5-carboxymethyl-1,2,4-triazol-3-ylthiomethyl)-3-cephem-4-carboxylic acid] | 3.1 µg/mL (≈ 6.13 µM) | 200 µg/mL (≈ 396 µM) | > 200 µg/mL | 1.6 µg/mL (≈ 3.16 µM) | – | 1.6 µg/mL (≈ 3.16 µM) | > 200 µg/mL | 0.8 µg/mL (≈ 1.58 µM) | 200 µg/mL (≈ 396 µM) | 41 mg/kg | 1 mg/kg | 3.1 µg/mL (≈ 6.13 µM) | 6.3 µg/mL (≈ 12.5 µM) | – | 1.6 µg/mL (≈ 3.16 µM) | – | < 3 mg/kg | 71 mg/kg | 1.5 mg/kg | 3.1 µg/mL (≈ 6.13 µM) | MIC in vitro (Entero. cloacae HH 31254; Entero. cloacae HH 31254): 1.6 µg/mL (≈ 3.16 µM); MIC (Entero. cloacae HH 31254; [9]): 3.1 µg/mL (≈ 6.13 µM); MIC in vitro (Kleb. pneumo. SK 1200; Kleb. pneumo. SK 1200): 0.2 µg/mL (≈ 0.396 µM); MIC (Kleb. pneumo. SK 1200; [10]): 0.4 µg/mL (≈ 0.791 µM); MIC in vitro (Serra. marc. ATCC 13880): 200 µg/mL (≈ 396 µM); MIC in vitro (Shigella HH 117; Shigella HH 117): 1.6 µg/mL (≈ 3.16 µM)
N[C@@H](C(=O)NC1C(=O)N2C(C(=O)O)=C(CSc3[nH]nnc3C(=O)O)CS[C@H]12)c1ccccc1 (stereo partly drawn) [V, 7-(D-α-Aminophenylacetamido)-3-(4-carboxy-1,2,3-triazol-5-ylthiomethyl)-3-cephem-4-carboxylic acid] | 25 µg/mL (≈ 51 µM) | > 200 µg/mL | > 200 µg/mL | 19 µg/mL (≈ 38.7 µM) | 200 µg/mL (≈ 408 µM) | – | > 200 µg/mL | – | 200 µg/mL (≈ 408 µM) | > 200 mg/kg | 25 mg/kg | 9 µg/mL (≈ 18.3 µM) | 25 µg/mL (≈ 51 µM) | 3.1 µg/mL (≈ 6.32 µM) | – | – | – | > 50 mg/kg | > 50 mg/kg | 12.5 µg/mL (≈ 25.5 µM) | MIC (E. coli SK 12140; SK12140, read-out: MIC in vitro, E. coli SK 12140): 12.5 µg/mL (≈ 25.5 µM); MIC in vitro (Kleb. pneumo. SK 1200; Kleb. pneumo. SK 1200): 4.7 µg/mL (≈ 9.58 µM); MIC (S. aureus SK 23390; [11]): 12.5 µg/mL (≈ 25.5 µM)
O=C(O)C1=C(CSc2[nH]nnc2C(=O)O)CS[C@@H]2C(NC(=O)[C@H](O)c3ccccc3)C(=O)N12 (stereo partly drawn) [VI, 7-D-Mandelamido-3-(4-carboxy-1,2,3-triazol-5-ylthiomethyl)-3-cephem-4-carboxylic acid] | 25 µg/mL (≈ 50.9 µM) | > 200 µg/mL | > 200 µg/mL | – | 200 µg/mL (≈ 407 µM) | 12.5 µg/mL (≈ 25.4 µM) | > 200 µg/mL | 6.3 µg/mL (≈ 12.8 µM) | > 200 µg/mL | > 200 mg/kg | 25 mg/kg | 6.3 µg/mL (≈ 12.8 µM) | 50 µg/mL (≈ 102 µM) | 3.1 µg/mL (≈ 6.31 µM) | – | – | – | > 200 mg/kg | 86 mg/kg | 6.3 µg/mL (≈ 12.8 µM) | MIC (Entero. cloacae HH 31254; [2]): 12.5 µg/mL (≈ 25.4 µM); MIC (Kleb. pneumo. SK 4200): 12.5 µg/mL (≈ 25.4 µM); MIC (S. aureus SK 23390; [11]): 3.1 µg/mL (≈ 6.31 µM)
N[C@@H](C(=O)NC1C(=O)N2C(C(=O)O)=C(CSc3n[nH]c(CC(=O)O)n3)CS[C@H]12)c1ccc(O)cc1 (stereo partly drawn) [VII, 7-(D-α-Amino-4-hydroxyphenylacetamido)-3-(5-carboxymethyl-1,2,4-triazol-3-ylthiomethyl)-3-cephem-4-carboxylic acid] | 12.5 µg/mL (≈ 24 µM) | > 200 µg/mL | > 200 µg/mL | – | > 200 µg/mL | 1.6 µg/mL (≈ 3.07 µM) | > 200 µg/mL | 6.3 µg/mL (≈ 12.1 µM) | 100 µg/mL (≈ 192 µM) | > 50 mg/kg | 3 mg/kg | 3.1 µg/mL (≈ 5.96 µM) | 25 µg/mL (≈ 48 µM) | – | 1.6 µg/mL (≈ 3.07 µM) | – | – | 31 mg/kg | 1.1 mg/kg | 12.5 µg/mL (≈ 24 µM) | MIC (Entero. cloacae HH 31254; [9]): 3.1 µg/mL (≈ 5.96 µM); MIC (Kleb. pneumo. SK 1200; [10]): 6.3 µg/mL (≈ 12.1 µM); MIC (S. aureus SK 23390; [11]): 12.5 µg/mL (≈ 24 µM)
N[C@@H](C(=O)NC1C(=O)N2C(C(=O)O)=C(CSc3n[nH]c(CC(=O)O)n3)CS[C@H]12)c1ccccc1 (stereo partly drawn) [VIII, 7-(D-α-Aminophenylacetamido)-3-(5-carboxymethyl-1,2,4-triazol-3-ylthiomethyl)-3-cephem-4-carboxylic acid] | 6.3 µg/mL (≈ 12.5 µM) | 200 µg/mL (≈ 396 µM) | > 200 µg/mL | 25 µg/mL (≈ 49.5 µM) | – | 0.8 µg/mL (≈ 1.59 µM) | > 200 µg/mL | 3.1 µg/mL (≈ 6.14 µM) | 200 µg/mL (≈ 396 µM) | > 50 mg/kg | 1.1 mg/kg | 3.1 µg/mL (≈ 6.14 µM) | 6.3 µg/mL (≈ 12.5 µM) | 1.6 µg/mL (≈ 3.17 µM) | 1.6 µg/mL (≈ 3.17 µM) | – | < 0.78 mg/kg | 39 mg/kg | 0.8 mg/kg | 12.5 µg/mL (≈ 24.8 µM) | MIC (Entero. cloacae HH 31254; [9]): 3.1 µg/mL (≈ 6.14 µM)

From patent publication US4142046A, “Intermediates for the preparation of 7-acyl-3-(substituted triazolylthiomethyl)cephalosporins” (SmithKline Corporation, priority 1976, dated 1979)
